Among the data in US11066383B2, “Inhibitors of indoleamine 2,3-dioxygenase and methods of their use” (BRISTOL-MYERS SQUIBB COMPANY, priority 2016, dated 2021) are IC50 values, retold here.

Each structure is given as a SMILES string.

The test has as its target T1, human IDO1 (Homo sapiens, UniProt P14902).
T1 construct: expressed in transfected cells
In words: HEK Human IDO-1 inhibition assay (kynurenine production in human IDO1/HEK293 cells). It counts as cell-based. The conditions noted are these: read-out: Bio Activity (μM) IC50. The method, then: HEK293 cells were transfected with a pCDNA-based mammalian expression vector harboring human IDO1 cDNA (NM 002164.2) by electroporation. They were cultured in medium (DMEM with 10% FBS) containing 1 mg/ml G418 for two weeks. Clones of HEK293 cells that stably expressed human IDO1 protein were selected and expanded for IDO inhibition assay.
The human IDO1/HEK293 cells were seeded at 10,000 cells per 50 μL per well with RPMI/phenol red free media contains 10% FBS in a 384-well black wall clear bottom tissue culture plate (Matrix Technologies LLC) 100 nL of certain concentration of compound was then added to each well using ECHO liquid handling systems. The cells were incubated for 20 hours in 37° C. incubator with 5% CO2.
The compound treatments were stopped by adding trichloroacetic acid (Sigma-Aldrich) to a final concentration at 0.2%. The cell plate was further incubated at 50° C. for 30 minute. The equal volume supernatant (20 μL) and 0.2% (w/v) Ehrlich reagent (4-dimethylaminobenzaldehyde, Sigma-Aldrich) in glacial acetic acid were mixed in a new clear bottom 384-well plate. This plate was then incubated at room temperature for 30 minute. The absorbance at 490 nm was measured on Envision plate reader.
Compound IC50 values were calculated using the counts of 500 nM of a reference standard treatment as one hundred percent inhibition, and counts of no compound but DMSO treatment as zero percent inhibition.

T1 sequence (P14902 whole entry): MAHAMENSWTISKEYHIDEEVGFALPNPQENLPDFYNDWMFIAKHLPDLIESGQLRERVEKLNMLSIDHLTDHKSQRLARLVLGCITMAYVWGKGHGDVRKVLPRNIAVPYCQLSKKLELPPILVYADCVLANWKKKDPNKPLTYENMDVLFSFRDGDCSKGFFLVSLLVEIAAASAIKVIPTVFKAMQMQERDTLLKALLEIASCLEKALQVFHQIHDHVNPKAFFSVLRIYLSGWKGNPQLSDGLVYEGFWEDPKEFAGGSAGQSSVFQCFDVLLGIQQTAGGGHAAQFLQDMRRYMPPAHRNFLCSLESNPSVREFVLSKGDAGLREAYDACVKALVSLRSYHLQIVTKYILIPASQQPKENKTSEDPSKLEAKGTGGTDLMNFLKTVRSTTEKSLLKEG

Consider `CCCC(C(=O)NC12CC3CC(CC(C3)C1)C2)N1CCN(c2ccnc3ccc(F)cc23)CC1` (single isomer, unassigned) [Example 19-1], for which the IC50 is less than 10 µM.

For `Cc1cc(Cl)ccc1CNC(=O)CC1(C)CCN(c2ccnc3ccc(F)cc23)CC1` [Example 1, N-(4-Chloro-2-methylbenzyl)-2-(1-(6-fluoroquinolin-4-yl)-4-methylpiperidin-4-yl)acetamide], the IC50 was less than 0.1 µM.

With `CC1(CC(=O)NC2(c3ccc(Cl)cc3Cl)CC2)CCN(c2ccnc3ccc(F)cc23)CC1` [Example 2, N-(1-(2,4-dichlorophenyl)cyclo-propyl)-2-(1-(6-fluoroquinolin-4-yl)-4-methylpiperidin-4-yl)acetamide], the IC50 was less than 0.1 µM.

On to `CC1(CC(=O)NC(C)(C)c2ccc(Cl)cc2)CCN(c2ccnc3ccc(F)cc23)CC1` [Example 3, N-(2-(4-chlorophenyl)propan-2-yl)-2-(1-(6-fluoroquinolin-4-yl)-4-methylpiperidin-4-yl)acetamide], for which the IC50 is less than 0.1 µM.

As to `C[C@H](NC(=O)CC1(C)CCN(c2ccnc3ccc(F)cc23)CC1)c1ccc(Cl)cc1` [Example 4, (S)-N-(1-(4-chlorophenyl)ethyl)-2-(1-(6-fluoroquinolin-4-yl)-4-methylpiperidin-4-yl)acetamide], the IC50 was less than 0.1 µM.

Turning to `CC1(CC(=O)NCc2ccc(Cl)cc2)CCN(c2ccnc3ccc(F)cc23)CC1` [Example 5, N-(4-chlorobenzyl)-2-(1-(6-fluoroquinolin-4-yl)-4-methylpiperidin-4-yl)acetamide], the half-maximal inhibitory concentration (IC50) is less than 1 µM.

Take `CC[C@H](NC(=O)CC1(C)CCN(c2ccnc(C(F)(F)F)c2)CC1)c1ccccc1` [Example 6, (S)-2-(4-Methyl-1-(2-(trifluoromethyl)pyridin-4-yl)piperidin-4-yl)-N-(1-phenylpropyl)acetamide]: the IC50 is less than 1 µM.

Regarding `CC1(CC(=O)NC2(c3ccc(Cl)cc3Cl)CC2)CCN(c2ccnc(C(F)(F)F)c2)CC1` [Example 7, N-(1-(2,4-dichlorophenyl)cyclo-propyl)-2-(4-methyl-1-(2-(trifluoro-methyl)pyridin-4-yl)piperidin-4-yl)acetamide], the IC50 was less than 1 µM.

Consider `CC1(CC(=O)NC(C)(C)c2ccc(Cl)cc2)CCN(c2ccnc(C(F)(F)F)c2)CC1` [Example 8, N-(2-(4-chlorophenyl)propan-2-yl)-2-(4-methyl-1-(2-(trifluoromethyl)-pyridin-4-yl)piperidin-4-yl)acetamide], for which the IC50 was less than 10 µM.

In the case of `C[C@H](NC(=O)CC1(C)CCN(c2ccnc(C(F)(F)F)c2)CC1)c1ccc(Cl)cc1` [Example 9, (S)-N-(1-(4-chlorophenyl)ethyl)-2-(4-methyl-1-(2-(trifluoromethyl)-pyridin-4-yl)piperidin-4-yl)acetamide], the IC50 was less than 1 µM.

As to `C[C@@H](C(=O)NCc1ccccc1Cl)[C@H]1CC[C@@H](c2ccnc3ccc(F)cc32)CC1` [Example 10, (R)—N-(2-chlorobenzyl)-2-((cis)-4-(6-fluoroquinolin-4-yl)cyclohexyl)propanamide], the IC50 was less than 1 µM.

As for `C[C@@H](C(=O)NCc1ccc(-c2ccccc2)cc1)[C@H]1CC[C@@H](c2ccnc3ccc(F)cc32)CC1` [Example 12, (R)-N-([1,1′-biphenyl]-4-ylmethyl)-2-((cis)-4-(6-fluoroquinolin-4-yl)cyclohexyl)propanamide], the IC50 was less than 1 µM.

Turning to `C[C@H](NC(=O)[C@H](C)[C@H]1CC[C@@H](c2ccnc3ccc(F)cc32)CC1)c1ccccc1` [Example 13, (R)-2-((cis)-4-(6-fluoroquinolin-4-yl)cyclohexyl)-N-((S)-1-phenylethyl)propanamide], the IC50 was less than 1 µM.

On to `C[C@H](NC(=O)[C@H](C)[C@H]1CC[C@@H](c2ccnc3ccc(F)cc32)CC1)c1ccc(Cl)cc1` [Example 14, (R)-N-((S)-1-(4-chlorophenyl)ethyl)-2-((cis)-4-(6-fluoroquinolin-4-yl)cyclohexyl)propanamide], for which the IC50 was less than 0.1 µM.

`C[C@@H](C(=O)NC(C)(C)c1ccc(Cl)cc1)[C@H]1CC[C@@H](c2ccnc3ccc(F)cc32)CC1` [Example 15, (R)-N-(2-(4-chlorophenyl)propan-2-yl)-2-((cis)-4-(6-fluoroquinolin-4-yl)cyclohexyl)propanamide]: the IC50 is less than 1 µM.

Consider `C[C@@H](C(=O)NC1(c2ccc(Cl)cc2Cl)CC1)[C@H]1CC[C@@H](c2ccnc3ccc(F)cc32)CC1` [Example 16, (R)-N-(1-(2,4-dichlorophenyl)cyclopropyl)-2-((cis)-4-(6-fluoroquinolin-4-yl)cyclohexyl)propanamide], for which the IC50 was less than 1 µM.

Turning to `C[C@@H](NC(=O)[C@H](C)[C@H]1CC[C@@H](c2ccnc3ccc(F)cc32)CC1)c1ccc(Cl)cc1` [Example 17, (R)-N-((R)-1-(4-chlorophenyl)ethyl)-2-((1s,4S)-4-(6-fluoroquinolin-4-yl)cyclohexyl)propanamide], the IC50 was less than 10 µM.

As to `C[C@@H](C(=O)NCc1ccccc1)[C@H]1CC[C@@H](c2ccnc3ccc(F)cc32)CC1` [Example 18], the IC50 is less than 10 µM.

Regarding `CC1(CC(=O)NC23CC4CC(CC(C4)C2)C3)CCN(c2ccnc3ccc(F)cc23)CC1` [Example 22, N-((3s,5s,7s)-Adamantan-1-yl)-2-(1-(6-fluoroquinolin-4-yl)-4-methylpiperidin-4-yl)acetamide], the half-inhibitory concentration (IC50) was less than 0.1 µM.

Regarding `CC1(CC(=O)N[C@@]23C[C@@H]4C[C@@H](C[C@@](O)(C4)C2)C3)CCN(c2ccnc3ccc(F)cc23)CC1` [Example 23, 2-(1-(6-Fluoroquinolin-4-yl)-4-methylpiperidin-4-yl)-N-((1r,3s,5R,7S)-3-hydroxyadamantan-1-yl)acetamide], the IC50 was less than 1 µM.
